For the experiment, the system named is BGLF4. Nature of the experiment: BGLF4 gRNA transfection into C666-1 cells, Western blotting. Particulars: FIG. 12B. In kind it is cell-based, Epstein-Barr virus (EBV). How it is done:
BGLF4 gRNAs were tested for triggering EBV reactivation in C666-1 cells expressing HA-dCas9-EGFP and 3×FLAG-pUFa-p65HSF1. Seven EBV genomic loci at the BGLF4 promoter were used to design the gRNAs for BGLF4 induction (gRNA (1), gRNA (2), gRNA (3), gRNA (4), gRNA (5), gRNA (6), and gRNA (7)). Individual BGLF4 gRNAs were transfected into cells and the induction of BGLF4 protein expression was studied by Western blotting. […] To study the combination effects of BGLF4 gRNAs, BGLF4 gRNAs were transfected into cells individually or in combination. […] As a positive control of EBV reactivation, the C666-1 cells were treated with the chemical inducer Gemcitabine to trigger EBV reactivation.
A general note: A western blot detects proteins with antibodies after separation by electrophoresis.

As to `Nc1ccn([C@@H]2O[C@H](CO)[C@@H](O)C2(F)F)c(=O)n1` [Gemcitabine], the “EBV reactivation (BZLF1 expression)” value is recorded as “implied the trigger of EBV reactivation”.

The values are drawn from US20230114264A1, “ACTIVATION OF LYTIC GENES IN CANCER CELLS” (priority 2020, published 2023).
